Article PMC6662683, “Identification of the Catechin Uptake Transporter Responsible for Intestinal Absorption of Epigallocatechin Gallate in Mice” (Scientific Reports, 2019)

How the values were obtained:
[1] = target: T1, diastrophic dysplasia sulfate transporter (DTDST) (Mus musculus, UniProt Q62273); experiment: inhibition of EGCg uptake into stably expressing CHO-K1 cells, LC-MS/MS; assay type: cell-based; conditions: 100 μM DIDS 1 h before EGCg; 500 μM EGCg, 30 min (Figure 4 legend; methods give 100 μM EGCg); pH 6.0, 37 °C
T1 construct: gene Slc26a2; full open reading frame from mouse ileal epithelial cDNA, C-terminal FLAG tag, stably expressed in CHO-K1 cells (pcDNA3.1(+))
T1 sequence (Q62273 1-739): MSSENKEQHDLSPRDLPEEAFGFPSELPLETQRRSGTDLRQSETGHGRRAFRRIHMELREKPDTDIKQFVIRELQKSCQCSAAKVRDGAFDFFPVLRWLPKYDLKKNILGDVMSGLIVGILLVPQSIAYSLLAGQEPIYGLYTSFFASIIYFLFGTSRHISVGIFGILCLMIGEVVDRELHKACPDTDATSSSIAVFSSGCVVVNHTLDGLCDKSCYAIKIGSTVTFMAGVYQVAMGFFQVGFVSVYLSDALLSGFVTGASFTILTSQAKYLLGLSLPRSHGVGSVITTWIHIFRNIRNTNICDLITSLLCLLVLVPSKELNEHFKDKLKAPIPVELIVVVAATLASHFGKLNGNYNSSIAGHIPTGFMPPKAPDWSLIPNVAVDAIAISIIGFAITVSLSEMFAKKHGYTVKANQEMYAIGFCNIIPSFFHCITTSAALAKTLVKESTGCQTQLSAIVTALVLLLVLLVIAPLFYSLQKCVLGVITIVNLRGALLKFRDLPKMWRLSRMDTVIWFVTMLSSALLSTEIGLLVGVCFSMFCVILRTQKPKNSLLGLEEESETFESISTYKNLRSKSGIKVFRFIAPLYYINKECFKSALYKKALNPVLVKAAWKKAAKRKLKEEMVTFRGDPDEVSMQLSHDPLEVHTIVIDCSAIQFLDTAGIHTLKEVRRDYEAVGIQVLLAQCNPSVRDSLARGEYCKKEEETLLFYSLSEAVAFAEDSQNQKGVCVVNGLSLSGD

[2] = substrate: O=C(O[C@@H]1Cc2c(O)cc(O)cc2O[C@@H]1c1cc(O)c(O)c(O)c1)c1cc(O)c(O)c(O)c1; experiment: EGCg uptake into stably expressing CHO-K1 cells, mock subtracted, LC-MS/MS; assay type: cell-based, Mus musculus; conditions: Hanks' balanced salt solution pH 6.0, 37 °C, 30 min, 1-1000 μM EGCg

**Q.** How did the “inhibition of EGCg uptake into stably expressing CHO-K1 cells, LC-MS/MS” value [1] turn out when `O=S(=O)(O)c1cc(N=C=S)ccc1/C=C/c1ccc(N=C=S)cc1S(=O)(=O)O` [4,4′-diisothiocyano-2,2′-stilbenedisulfonic acid] was run?
**A.** compared with mock cells was nullified in the presence of the DTDST inhibitor DIDS

B1: diastrophic dysplasia sulfate transporter (DTDST) (Mus musculus) (protein)
chain: MSSENKEQHDLSPRDLPEEAFGFPSELPLETQRRSGTDLRQSETGHGRRAFRRIHMELREKPDTDIKQFVIRELQKSCQCSAAKVRDGAFDFFPVLRWLPKYDLKKNILGDVMSGLIVGILLVPQSIAYSLLAGQEPIYGLYTSFFASIIYFLFGTSRHISVGIFGILCLMIGEVVDRELHKACPDTDATSSSIAVFSSGCVVVNHTLDGLCDKSCYAIKIGSTVTFMAGVYQVAMGFFQVGFVSVYLSDALLSGFVTGASFTILTSQAKYLLGLSLPRSHGVGSVITTWIHIFRNIRNTNICDLITSLLCLLVLVPSKELNEHFKDKLKAPIPVELIVVVAATLASHFGKLNGNYNSSIAGHIPTGFMPPKAPDWSLIPNVAVDAIAISIIGFAITVSLSEMFAKKHGYTVKANQEMYAIGFCNIIPSFFHCITTSAALAKTLVKESTGCQTQLSAIVTALVLLLVLLVIAPLFYSLQKCVLGVITIVNLRGALLKFRDLPKMWRLSRMDTVIWFVTMLSSALLSTEIGLLVGVCFSMFCVILRTQKPKNSLLGLEEESETFESISTYKNLRSKSGIKVFRFIAPLYYINKECFKSALYKKALNPVLVKAAWKKAAKRKLKEEMVTFRGDPDEVSMQLSHDPLEVHTIVIDCSAIQFLDTAGIHTLKEVRRDYEAVGIQVLLAQCNPSVRDSLARGEYCKKEEETLLFYSLSEAVAFAEDSQNQKGVCVVNGLSLSGD
notes: full open reading frame from mouse ileal epithelial cDNA, C-terminal FLAG tag, stably expressed in CHO-K1 cells (pcDNA3.1(+))
**Q.** How did the Km [2] turn out when B1 was run?
**A.** 576 ± 244 µM
